According to patent US10945989B2, “Perinatal treatment with a flavonoid agonist of the TrkB receptor for BDNF rescues neurogenesis and behavior in the Ts65Dn mouse model of DS” (ALMA MATER STUDIORUM—Universita' di Bologna, priority 2017, dated 2021):

Experiments:
[1] = tested on: dendritic spines of granule neurons; assay: Golgi staining: dendritic spine density of granule cells; type: in vivo, mouse; conditions: 5.0 mg/kg P3-P15
Protocol: Euploid and Ts65Dn mice received a daily subcutaneous injection (at 9-10 am) of 7,8-DHF (5.0 mg/kg in vehicle: PBS with 1% DMSO) or vehicle from postnatal day 3 (P3) to postnatal day 15. This timing was chosen because it corresponds to that previously used to test the effects of fluoxetine and other pharmacotherapies in the neonate Ts65Dn mouse (Bianchi et al., 2010b; Giacomini et al., 2015; Stagni et al., 2016). Mice that received 7,8-DHF will be called “treated mice” (treated euploid mice: n=25; treated Ts65Dn mice: n=15). Mice that received the vehicle will be called “untreated mice” (untreated euploid mice: n=35; untreated Ts65Dn mice: n=21). […] The brains were excised and cut along the midline. […]
In Golgi-stained sections from the DG of P15 mice, spines of granule cells were counted using a 100× oil immersion objective lens (1.4 NA). […] For each neuron, 2-3 segments were analyzed in the outer and inner half of the molecular layer, respectively. For each animal, spines were counted in at least 8 neurons. The length of each sampled dendritic segment was determined by tracing its profile and the number of spines was counted manually. The linear spine density was calculated by dividing the total number of spines by the length of the dendritic segment. Spine density was expressed as number of spines per 100 μm dendrite.

[2] = tested on: NPCs from the SGZ of Ts65Dn mice; assay: Neuron maturation: cells exhibiting neuritic processes, SGZ NPCs; type: cell-based, mouse; conditions: 96 h, vs standard medium
Protocol: Cells were isolated from the subventricular zone (SVZ) of the lateral ventricle and the subgranular zone (SGZ) of the hippocampal dentate gyrus (DG) of newborn (P1-P2) euploid and Ts65Dn mice. Briefly, brains were removed, the SVZ and SGZ regions were isolated and individually collected in ice-cold PIPES buffer pH 7.4. After centrifugation, tissue was digested for 10 min at 37° C. using Trypsin/EDTA 0.25% (Life Technologies) aided by gentle mechanical dissociation. Cell suspension from each individual mouse was plated onto 25 cm^2 cell-culture flask (Thermo Fisher Scientific) and cultured as floating neurospheres in medium containing basic fibroblast growth factor (bFGF, 10 ng/ml; Peprotech) and epidermal growth factor (EGF, 20 ng/ml; Peprotech) using an established protocol (Meneghini et al., 2014). […] Cell proliferation was quantified as relative luminescence units (RLU) values using Cell Titer-Glo viability assay reagent (Promega) on aVictor^3-V plate reader (PerkinElmer). […] In each experiment, five fields/well (corresponding to about 150-200 cells/well) were counted with a 60× objective by a Leica DMIRB inverted fluorescence microscope. Immunoreactive cells were counted and their percentage over total viable cells was calculated. […]

[3] = tested on: TrkB receptor (TrkB-FL, p-TrkB-FL, TrkB-T1); assay: Western blot of hippocampal homogenates: TrkB receptors; type: in vivo, mouse
Protocol: Euploid and Ts65Dn mice received a daily subcutaneous injection (at 9-10 am) of 7,8-DHF (5.0 mg/kg in vehicle: PBS with 1% DMSO) or vehicle from postnatal day 3 (P3) to postnatal day 15. This timing was chosen because it corresponds to that previously used to test the effects of fluoxetine and other pharmacotherapies in the neonate Ts65Dn mouse (Bianchi et al., 2010b; Giacomini et al., 2015; Stagni et al., 2016). Mice that received 7,8-DHF will be called “treated mice” (treated euploid mice: n=25; treated Ts65Dn mice: n=15). Mice that received the vehicle will be called “untreated mice” (untreated euploid mice: n=35; untreated Ts65Dn mice: n=21). […] The brains were excised and cut along the midline. The left hemisphere of a group of mice was fixed by immersion in PFA 4% and frozen, and the left hemisphere of another group of mice was used for Golgi staining. The right hemispheres of all mice was kept at −80° C. and used for western blotting.
In homogenates of the hippocampal formation of P15 mice, total proteins were obtained as previously described (Trazzi et al., 2011) and the levels of the following proteins were evaluated: BDNF, TrkB full length (TrkB-FL), phosphorylated TrkB (p-TrkB), the truncated form 1 of the TrkB receptor (TrkB-T1), phosphorylated ERK1 (p-ERK1), phosphorylated ERK2 (p-ERK2), ERK1, ERK2, synaptophysin (SYN), GAPDH and α-Tubulin using the antibodies reported in Table 1. Densitometric analysis of digitized images with ChemiDoc XRS+ was performed with Image Lab software (Bio-Rad Laboratories, Hercules, Calif., USA) and intensity for each band was normalized to the intensity of the corresponding GAPDH or α-Tubulin band.

With O=c1cc(-c2ccccc2)oc2c(O)c(O)ccc12 [7,8-DHF, 7,8-dihydroxyflavone] the “spine density of granule neurons” value ([1]; P15 Ts65Dn mice) was “became similar to that of euploid mice”, the “spine density of granule neurons” value ([1]; P15 euploid mice) was “no effect on spine density” and the “concentrations that increased the percentage of cells exhibiting neuritic processes” value [2] was “higher than 1.1 μM”. The “levels of p-TrkB-FL” value ([3]; P15, both genotypes (euploid and Ts65Dn)) was “increase in the levels of p-TrkB-FL”, the “levels of TrkB-FL” value ([3]; P15 Ts65Dn mice) was “reduction in the levels of TrkB-FL” and the “levels of TrkB-T1” value ([3]; P15 Ts65Dn mice, vs untreated counterparts and untreated euploid mice) was “reduction in the levels of TrkB-T1”.
